# Test results published in ChEMBL document CHEMBL3045485, “Synthesis of combretastatin analogs: evaluation of in vitro anticancer activity and molecular docking studies” (Med Chem Res, 2012).
# How the values were obtained:
# THP-1 [1] = test: Cytotoxicity against Homo sapiens (human) THP1 cells assessed as growth inhibition at 5 x 10^-5 mole after 48 hr by SRB assay; assay type: functional
# A549 [2] = test: Cytotoxicity against Homo sapiens (human) A549 cells assessed as growth inhibition at 1 x 10^-4 mole after 48 hr by SRB assay; assay type: functional
# THP-1 [3] = test: Cytotoxicity against Homo sapiens (human) THP1 cells assessed as growth inhibition at 1 x 10^-4 mole after 48 hr by SRB assay; assay type: functional
# PC-3 [4] = test: Cytotoxicity against Homo sapiens (human) PC3 cells assessed as growth inhibition at 1 x 10^-4 mole after 48 hr by SRB assay; assay type: functional
# PC-3 [5] = test: Cytotoxicity against Homo sapiens (human) PC3 cells assessed as growth inhibition at 5 x 10^-5 mole after 48 hr by SRB assay; assay type: functional
# COLO 205 [6] = test: Cytotoxicity against Homo sapiens (human) COLO205 cells assessed as growth inhibition at 1 x 10^-4 mole after 48 hr by SRB assay; assay type: functional
# COLO 205 [7] = test: Cytotoxicity against Homo sapiens (human) COLO205 cells assessed as growth inhibition at 5 x 10^-5 mole after 48 hr by SRB assay; assay type: functional
# A549 [8] = test: Cytotoxicity against Homo sapiens (human) A549 cells assessed as growth inhibition at 5 x 10^-5 mole after 48 hr by SRB assay; assay type: functional
# IGROV-1 [9] = test: Cytotoxicity against Homo sapiens (human) IGROV1 cells assessed as growth inhibition at 1 x 10^-4 mole after 48 hr by SRB assay; assay type: functional
# MCF7 [10] = test: Cytotoxicity against Homo sapiens (human) MCF-7 cells assessed as growth inhibition at 5 x 10^-5 mole after 48 hr by SRB assay; assay type: functional
# IGROV-1 [11] = test: Cytotoxicity against Homo sapiens (human) IGROV1 cells assessed as growth inhibition at 5 x 10^-5 mole after 48 hr by SRB assay; assay type: functional
# MCF7 [12] = test: Cytotoxicity against Homo sapiens (human) MCF-7 cells assessed as growth inhibition at 1 x 10^-4 mole after 48 hr by SRB assay; assay type: functional
# SF-295 [13] = test: Cytotoxicity against Homo sapiens (human) SF295 cells assessed as growth inhibition at 5 x 10^-5 mole after 48 hr by SRB assay; assay type: functional
# COLO 205 [14] = test: Cytotoxicity against Homo sapiens (human) COLO205 cells after 48 hr by SRB assay; assay type: functional, cell-based; conditions: COLO 205, 48 h, pooled result: one value given for 7 cell lines, strains, targets or settings
# SF-295 [15] = test: Cytotoxicity against Homo sapiens (human) SF295 cells assessed as growth inhibition at 1 x 10^-4 mole after 48 hr by SRB assay; assay type: functional
# COLO 205 [16] = test: Cytotoxicity against Homo sapiens (human) COLO205 cells assessed as growth inhibition at 2 x 10^-5 mole after 48 hr by SRB assay; assay type: functional
# THP-1 [17] = test: Cytotoxicity against Homo sapiens (human) THP1 cells assessed as growth inhibition at 2 x 10^-5 mole after 48 hr by SRB assay; assay type: functional
# SF-295 [18] = test: Cytotoxicity against Homo sapiens (human) SF295 cells assessed as growth inhibition at 1 x 10^-6 mole after 48 hr by SRB assay; assay type: functional
# MCF7 [19] = test: Cytotoxicity against Homo sapiens (human) MCF-7 cells assessed as growth inhibition at 1 x 10^-6 mole after 48 hr by SRB assay; assay type: functional
# IGROV-1 [20] = test: Cytotoxicity against Homo sapiens (human) IGROV1 cells assessed as growth inhibition at 1 x 10^-5 mole after 48 hr by SRB assay; assay type: functional
# A549 [21] = test: Cytotoxicity against Homo sapiens (human) A549 cells assessed as growth inhibition at 1 x 10^-5 mole after 48 hr by SRB assay; assay type: functional
# MCF7 [22] = test: Cytotoxicity against Homo sapiens (human) MCF-7 cells assessed as growth inhibition at 1 x 10^-5 mole after 48 hr by SRB assay; assay type: functional
# PC-3 [23] = test: Cytotoxicity against Homo sapiens (human) PC3 cells assessed as growth inhibition at 1 x 10^-5 mole after 48 hr by SRB assay; assay type: functional
SMILES,growth inhibition (GI) (THP-1 [1]) [%],growth inhibition (GI) (A549 [2]) [%],growth inhibition (GI) (THP-1 [3]) [%],growth inhibition (GI) (PC-3 [4]) [%],growth inhibition (GI) (PC-3 [5]) [%],growth inhibition (GI) (COLO 205 [6]) [%],growth inhibition (GI) (COLO 205 [7]) [%],growth inhibition (GI) (A549 [8]) [%],growth inhibition (GI) (IGROV-1 [9]) [%],growth inhibition (GI) (MCF7 [10]) [%],growth inhibition (GI) (IGROV-1 [11]) [%],growth inhibition (GI) (MCF7 [12]) [%],IC50 (COLO 205 [14]) [µM],further results
COc1cc(OC)c(OC)cc1/C=C(\C(=O)O)c1ccccc1,0,20,21,28,4,16,5,0,–,–,–,–,–,–
O=C(O)/C(=C\c1cccc(Cl)c1)c1ccccc1,–,32,–,68,30,–,–,32,38,0,0,0,–,–
COc1cccc(/C=C(\C(=O)O)c2ccccc2)c1OC,–,89,–,4,2,–,–,60,11,25,6,52,3.9,growth inhibition (GI) (SF-295 [13]): 8%; growth inhibition (GI) (SF-295 [15]): 24%
O=c1[nH]cc(F)c(=O)[nH]1 [FLUOROURACIL],–,–,–,–,–,–,–,–,–,–,–,–,–,growth inhibition (GI) (COLO 205 [16]): 74%; growth inhibition (GI) (THP-1 [17]): 69%
O=C(O)/C(=C\c1ccccc1)c1ccccc1,–,54,–,4,0,–,–,52,0,29,0,41,85.4,growth inhibition (GI) (SF-295 [13]): 14%; growth inhibition (GI) (SF-295 [15]): 25%
O=C(O)/C(=C\c1ccccc1Cl)c1ccccc1,–,12,–,52,36,–,–,12,42,5,32,10,–,–
O=C(O)/C(=C\C=C\c1ccccc1)c1ccccc1,8,43,35,9,0,44,15,10,–,–,–,–,–,–
O=C(O)/C(=C\c1ccc(Cl)cc1)c1ccccc1,–,61,–,42,14,–,–,61,0,10,0,22,34,–
O=C(O)/C(=C\c1cccc(O)c1O)c1ccccc1,–,52,–,74,31,–,–,52,31,14,15,26,96.5,–
COc1cccc2c1C(=O)c1c(O)c3c(c(O)c1C2=O)C[C@@](O)(C(=O)CO)C[C@@H]3O[C@H]1C[C@H](N)[C@H](O)[C@H](C)O1.Cl [DOXORUBICIN HYDROCHLORIDE],–,–,–,–,–,–,–,–,–,–,–,–,–,growth inhibition (GI) (SF-295 [18]): 87%; growth inhibition (GI) (MCF7 [19]): 77%
COc1cc(/C=C(\C(=O)O)c2ccccc2)cc(OC)c1OC,–,65,–,22,10,–,–,21,1,54,0,63,88,growth inhibition (GI) (SF-295 [13]): 13%; growth inhibition (GI) (SF-295 [15]): 25%
O=C(O)/C(=C\c1ccc2c(c1)OCO2)c1ccccc1,–,45,–,39,11,–,–,0,32,32,0,39,–,growth inhibition (GI) (SF-295 [13]): 15%; growth inhibition (GI) (SF-295 [15]): 38%
COc1ccc(/C=C(\C(=O)O)c2ccccc2)cc1O,–,20,–,23,12,–,–,0,17,14,8,24,–,growth inhibition (GI) (SF-295 [13]): 0%; growth inhibition (GI) (SF-295 [15]): 12%
COc1ccc(/C=C(\C(=O)O)c2ccccc2)c(OC)c1OC,0,0,0,7,0,0,0,0,–,–,–,–,–,–
O=C(O)/C(=C\c1cccc2ccccc12)c1ccccc1,0,0,22,35,26,70,51,0,–,–,–,–,> 100,–
CC(=O)O[C@H]1C(=O)[C@@]2(C)[C@H]([C@H](OC(=O)c3ccccc3)[C@]3(O)C[C@H](OC(=O)[C@H](O)[C@@H](NC(=O)c4ccccc4)c4ccccc4)C(C)=C1C3(C)C)[C@]1(OC(C)=O)CO[C@@H]1C[C@@H]2O [PACLITAXEL],–,–,–,–,–,–,–,–,–,–,–,–,–,growth inhibition (GI) (IGROV-1 [20]): 66%; growth inhibition (GI) (A549 [21]): 67%
CO[C@@]12[C@H](COC(N)=O)C3=C(C(=O)C(C)=C(N)C3=O)N1C[C@@H]1N[C@@H]12 [MITOMYCIN],–,–,–,–,–,–,–,–,–,–,–,–,–,growth inhibition (GI) (MCF7 [22]): 65%; growth inhibition (GI) (PC-3 [23]): 58%
CC(=O)Oc1ccccc1/C=C(\C(=O)O)c1ccccc1,–,10,–,60,53,–,–,10,18,6,6,20,–,–
O=C(O)/C(=C\c1ccccc1[N+](=O)[O-])c1ccccc1,0,25,0,22,10,60,32,15,–,–,–,–,–,–
COc1ccc(OC)c(/C=C(\C(=O)O)c2ccccc2)c1,0,10,4,0,0,0,0,0,–,–,–,–,–,–
